Assay results as given in patent US11254652B2, “Crystalline forms of N-(4-(4-(cyclopropymethyl)piperazine-1-carbonyl)phenyl)quinoline-8-sulfonamide” (Agios Pharmaceuticals, Inc., priority 2017, dated 2022).

Assays:
Assay type in all cases: physicochemical
[1] = Solubility in water and simulated fluids at 37° C. (slurry, HPLC; XRPD of residual solid); conditions: values based on hemi-sulfate sesqui-hydrate salt; for solubility at 1 h / solubility at 2 days: 37 °C, thermodynamic from solid; for solubility at 1 h: slurry time 1 hr
Experimental: Solubility of Patterns A, B and D were measured in water. The solids were slurried in the fluids for two days and at 37° C. The supernatant was syringe filtered and used for HPLC analysis. For Patterns A and D the solubility measurement was repeated and the sample was taken after 1 hr slurry. A calibration curve was developed using Pattern A. This was not assay corrected and therefore the solubility values are based on the hemi-sulfate, sesqui-hydrate salt.
Both Patterns B and D converted to Pattern A after two days slurry. Pattern D also converted to Pattern A within 1 hour slurry in Fasted state simulated gastric fluid (FaSSGF) or water. […] This could be because of the conversion of Patterns B and D to Pattern A. The solubility data and the resulting XRPD Pattern after the measurement are reported in Table 21.

[2] = Stability study of Form A under temperature/RH storage
[3] = Solubility in MeOH:Water by slow heating to dissolve at fixed solvent volume; conditions: organic solvent or mixture, thermodynamic from solid
Experimental: Three solvent compositions were used as MeOH:Water (99:1 vol), (98:2) and (95:5). About 25 mg of Form A was weighed into 2 mL vial and 6 volume solvent was added, then slowly heated to dissolve. For experiment with 5% water, an additional test was conducted with 8 vol solvents.

## O=C(c1ccc(NS(=O)(=O)c2cccc3cccnc23)cc1)N1CCN(CC2CC2)CC1 [Form A, 1-(cyclopropylmethyl)-4-(4-(quinoline-8-sulfonamido)benzoyl)piperazin-1-ium hemisulfate sesquihydrate]
[1]; FaSSGF, fassgf or other biorelevant
  solubility at 1 h: 7070 µg/mL
[1]; FaSSGF, fassgf or other biorelevant, slurry time 2 days
  solubility at 2 days: 6800 µg/mL
[1]; FaSSIF, slurry time 2 days, hemisulfate sesquihydrate
  Solubility: 0.24 mg Solid/mL solvent
[1]; water
  solubility at 1 h: 3050 µg/mL
[1]; water, slurry time 2 days
  solubility at 2 days: 2690 µg/mL
[2]; one month under 40±2° C./75±5% RH
  degradation in stability study: No degradation
[2]; three months at 30±2° C./65±5% RH
  degradation in stability study: No degradation
[2]; three months under 25±2° C./60±5% RH
  degradation in stability study: No degradation
[2]; three months under 40±2° C./75% RH
  degradation in stability study: No degradation
[2]; twelve months under 25±2° C./60±5% RH
  degradation in stability study: No degradation
[3]; MeOH:Water (95:5), 6 vol, temperature when dissolution 60 ° C.
  Solubility: 167 mg/mL
[3]; MeOH:Water (95:5), 8 vol, temperature when dissolution 50 ° C.
  Solubility: 125 mg/mL
[3]; MeOH:Water (98:2), 6 vol, temperature when dissolution 35 ° C.
  Solubility: 167 mg/mL
[3]; MeOH:Water (99:1), 6 vol, temperature when dissolution 23 ° C.
  Solubility: > 167 mg/mL
